According to patent publication US6359009B1, “Substituted anilide insecticidal agents” (BASF Aktiengesellschaft, priority 1998, dated 2002):
Structures can show the parent of a compound that is named as a salt.

Experiments:
[1] = test system: Diabrotica virgifera virgifera Leconte, 3rd instar western corn rootworm; experiment: Evaluation against 3rd instar western corn rootworm, treated talc/soil jar test, mortality after 5 days; format: in vivo; settings: mortality rating 0-9 after 5 days in soil
Procedure: (§1) Test solutions are prepared by dissolving the test compound in a 35% acetone in water mixture to give a concentration of 10,000 ppm. Subsequent dilutions are made with water as needed.
Diabrotica virgifera virgifera Leconte, 3rd instar western corn rootworm
(§2) One cc of fine talc is placed in a 30 mL wide-mouth screw-top glass jar. One mL of the appropriate acetone test solution is pipetted onto the talc so as to provide 1.25 mg, 0.25 mg or 0.025 mg of active ingredient per jar. The jars are set under a gentle air flow until the acetone is evaporated. The dried talc is loosened, 1 cc of millet seed is added to serve as food for the insects and 25 mL of moist soil is added to each jar. The jar is capped and the contents thoroughly mixed mechanically. Following this, ten 3rd instar rootworms are added to each jar and the jars are loosely capped to allow air exchange for the larvae. The treatments are held for 5 days when mortality counts are made. Missing larvae are presumed dead, since they decompose rapidly and can not be found.

[2] = test system: Diabrotica undecimrunctata howardi, 3rd instar southern corn rootworm; experiment: Evaluation against 3rd instar southern corn rootworm, treated talc/soil jar test, mortality after 5 days; format: in vivo, Diabrotica undecimpunctata howardi; settings: mortality rating 0-9 after 5 days in soil
Procedure: as §1
Diabrotica undecimrunctata howardi, 3rd instar southern corn rootworm
as §2

| SMILES | Western Corn Rootworm (1 ppm) rating [1] | Western Corn Rootworm (10 ppm) rating [1] | Western Corn Rootworm (50 ppm) rating [1] | Southern Corn Rootworm (1 ppm) rating [2] | Southern Corn Rootworm (10 ppm) rating [2] | Southern Corn Rootworm (50 ppm) rating [2] |
| --- | --- | --- | --- | --- | --- | --- |
| CC(C)C(OC1CCCC1)C(C)(C)C(=O)Nc1ccc(C(F)(F)F)cc1 (stereo not drawn) [Compound 26, 3-(Cyclopentyloxy)-α,α,α-trifluoro-2,2,4-trimethyl-p-valerotoluidide] | 0.0 | 0.0 | 8.0 | – | – | – |
| CC(C)OC(C(C)C)C(C)(C)C(=O)Nc1ccc(C(F)(F)F)cc1 (stereo not drawn) [Compound 23, α,α,α-Trifluoro-3-(isopropoxy)-2,2,4-trimethyl-p-valerotoluidide] | 0.0 | 9.0 | 9.0 | – | – | – |
| CC(C)C(=O)C(C)(Cl)C(=O)Nc1ccc(C(F)(F)F)cc1 (stereo not drawn) [Compound 31] | 0.0 | 0.0 | 4.0 | – | – | – |
| CC(C)C(O)C(C)(C)C(=O)Nc1ccc(Cl)cc1 (stereo not drawn) [Compound 3, 4′-chloro-3-hydroxy-2,2,4-trimethylvaleranilide] | – | – | – | 0.0 | 4.0 | 8.0 |
| CC(C)SC(C)(C)C(=O)Nc1ccc(C(F)(F)F)cc1 [Compound 5, α,α,α-Trifluoro-2-(isopropylthio)-2-methyl-p-propionotoluidide] | – | – | – | 0.0 | 0.0 | 9.0 |
| CC(C)OC(C)(C)C(=O)Nc1ccc(C(F)(F)F)cc1 [Compound 30, α,α,α-Trifluoro-2-isopropoxy-2-methyl-p-propionotoluidide] | 0.0 | 9.0 | 9.0 | – | – | – |
| C#CCOC(C(C)C)C(C)(C)C(=O)Nc1ccc(C(F)(F)F)cc1 (stereo not drawn) [Compound 19, α,α,α-Trifluoro-2,2,4-trimethyl-3-(2-propynyloxy)-p-valerotoluidide] | 0.0 | 9.0 | 9.0 | – | – | – |
| COC(C(C)C)C(C)(C)C(=O)Nc1ccc(Cl)cc1 (stereo not drawn) [Compound 28, 4′-Chloro-3-methoxy-2,2,4-trimethylvaleranilide] | 0.0 | 5.0 | 9.0 | – | – | – |
| CCCCCCOC(C(C)C)C(C)(C)C(=O)Nc1ccc(C(F)(F)F)cc1 (stereo not drawn) [Compound 27, α,α,α-Trifluoro-3-(hexyloxy)-2,2,4-trimethyl-p-valerotoluidide] | 0.0 | 0.0 | 9.0 | – | – | – |
| CC(C)(C)OC(C)(C)C(=O)Nc1ccc(C(F)(F)F)cc1 [Compound 34, 2-tert-Butoxy-α,α,α-trifluoro-2-methyl-p-propionotoluidide] | 2.0 | 9.0 | 9.0 | – | – | – |
| CC(C)CC(C)C(=O)Nc1ccc(C(F)(F)F)c(OC(F)F)c1 (stereo not drawn) [Compound 32, 3-(Difluoromethoxy)-α,α,α-trifluoro-2,4-dimethyl-p-valerotoiuidide] | 0.0 | 4.0 | 4.0 | – | – | – |
| CCOCOC(C(C)C)C(C)(C)C(=O)Nc1ccc(C(F)(F)F)cc1 (stereo not drawn) [Compound 17, 3-(Ethoxymethoxy)-α,α,α-trifluoro-2,2,4-trimethyl-p-valerotoluidide] | 1.0 | 9.0 | 9.0 | – | – | – |
| CC(C)C(OS(C)(=O)=O)C(C)(C)C(=O)Nc1ccc(C(F)(F)F)cc1 (stereo not drawn) [Compound 18, α,α,α-Trifluoro-3-hydroxy-2,2,4-trimethyl-p-valerotoluidide, methanesulfonate (ester)] | 0.0 | 3.0 | 9.0 | – | – | – |
| CCOC(C)(C)C(=O)Nc1ccc(C(F)(F)F)cc1 [Compound 35, 2-Ethoxy-α,α,α-trifluoro-2-methyl-p-propionotoluidide] | 0.0 | 3.0 | 9.0 | – | – | – |
| C=CCOC(C(C)C)C(C)(C)C(=O)Nc1ccc(C(F)(F)F)cc1 (stereo not drawn) [Compound 22, 3-(Allyloxy)-α,α,α-trifluoro-2,2,4-trimethyl-p-valerotoluidide] | 0.0 | 9.0 | 9.0 | – | – | – |
| CC(C)C(OC(=O)CCl)C(C)(C)C(=O)Nc1ccc(C(F)(F)F)cc1 (stereo not drawn) [Compound 20, 3-Hydroxy-α,α,α-trifluoro-2,2,4-trimethyl-p-valerotoluidide, chloroacetate (ester)] | 0.0 | 5.0 | 9.0 | – | – | – |
| CC(C)C(=O)C(C)C(=O)Nc1ccc(C(F)(F)F)cc1 (stereo not drawn) [Compound 29, α,α,α-Trifluoro-2,4-dimethyl-3-oxo-p-valerotoluidide] | 0.0 | 0.0 | 8.5 | – | – | – |
| COC(C(C)C)C(C)(C)C(=O)Nc1ccc(C(F)(F)F)cc1 (stereo not drawn) [Compound 16, α,α,α-Trifluoro-3-methoxy-2,2,4-trimethyl-p-valerotoluidide] | 0.0 | 9.0 | 9.0 | – | – | – |
| CCOCN(C(=O)C(C)(C)C(=O)C(C)C)c1ccc(C(F)(F)F)cc1 [Compound 15, N-(Ethoxymethyl)-α,α,α-trifluoro-2,2,4-trimethyl-3-oxo-p-valerotoluidide] | 8.0 | 9.0 | 9.0 | – | – | – |
| CC(C)(C)C(=O)C(C)(C)C(=O)Nc1ccc(C(F)(F)F)cc1 [Compound 21, α,α,α-Trifluoro-2,2,4,4-tetramethyl-3-oxo-p-valerotoluidide] | 0.0 | 9.0 | 9.0 | – | – | – |
| CC(C)C(=O)C(C)(C)C(=O)N(C)c1ccc(C(F)(F)F)cc1 [Compound 36, α,α,α-Trifluoro-N,2,2,4-tetramethyl-3-oxo-p-valerotoluidide] | 2.0 | 9.0 | 9.0 | – | – | – |
| CC(C)C(=O)C1(C(=O)Nc2ccc(C(F)(F)F)cc2)CC1 [Compound 25, α,α,α-Trifluoro-1-isobutyrylcyclopropanecarboxy-p-toluidide] | 0.0 | 0.0 | 7.0 | – | – | – |
| CC(C)C(OC=O)C(C)(C)C(=O)Nc1ccc(C(F)(F)F)cc1 (stereo not drawn) [Compound 33, α,α,α-Trifluoro-3-hydroxy-2,2,4-trimethyl-p-valerotoiuidide, formate (ester)] | 0.0 | 5.0 | 9.0 | – | – | – |
| CCOC(C(C)C)C(C)(C)C(=O)Nc1ccc(C(F)(F)F)cc1 (stereo not drawn) [Compound 24, 3-Ethoxy-α,α,α-trifluoro-2,2,4-trimethyl-p-valerotoluidide] | 0.0 | 9.0 | 9.0 | – | – | – |
